# Source: patent US20150111781A1, “ANALYZING SEMAPHORIN7A (Sema7A) LEVELS FOR ASSESSING CANCER METASTATIC POTENTIAL” (Florida Atlantic University, priority 2012, published 2015)
# Tested on: MCF-10A cells
# Test: TGF-β1 induction of Sema7A gene expression by qRT-PCR
# Format: cell-based, human
# Settings: 5 ng/ml, within 18 hours, vs vehicle
# Method: We then wanted to establish an in vitro system to study the functional role of Sema7A in the breast epithelia. To do so, we assayed the Sema7A expression in human breast cell lines with varying degrees of malignancy using quantitative real-time PCR (qRT-PCR).
# We treated MCF-10A cells with 5 ng/ml of TGF-β1 or vehicle for 18, 24 or 36 hours. MCF-10A cells were then assayed for Sema7A gene expression by qRT-PCR. […] TGF-β1 is a key inducer of epithelial to mesenchymal transition (EMT) and Sema7A could serve as a down-stream effecter of TGF-β1 in EMT.
substance,measurement,value
"TGF-β1: Transforming growth factor beta-1, used to induce Sema7A expression in MCF-10A breast epithelial cells",expression of Sema7A,significantly increased
